Drawing on PubChem BioAssay (NCI), this text covers TGI and GI50 for 16 compounds.

Test systems include MOLT-4 leukemia; A549 NSCLC; CCRF-CEM leukemia; TK-10 renal; UO-31 renal; U251 CNS; SK-OV-3 ovarian; ACHN renal; SNB-19 CNS; OVCAR-8 ovarian; A498 renal; OVCAR-3 ovarian; OVCAR-5 ovarian; SF-539 CNS.
Common to all, as to test: DTP human tumour cell line panel, 48 h

The structures appear in SMILES notation. Values joined by “and” are separate entries in the source; they are usually repeats but may differ in a detail not shown here. Equal entries are not always repeated.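 Dose response: 5 concentrations. Exposure: 48 h. Format: 96-well plates. Endpoint: linear interpolation; highest concentration if not reached. GI50: concentration for 50% inhibition of growth. TGI is the concentration that stops growth completely.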

By TGI is commonly meant the concentration at which net growth stops. As to `CCCCCCCCCCCCCCCCCCNC(=O)C(N)Cc1ccc(OCc2ccccc2)cn1` (stereo not drawn), the TGI in the assay on MOLT-4 leukemia was 55 µM; in the assay with A549 NSCLC, 42.6 µM; in the assay on CCRF-CEM leukemia, 78.9 µM; with TK-10 renal, 28.8 µM; in the assay on UO-31 renal it was 32.5 µM; with U251 CNS it was 35.4 µM. The TGI came out at 40.2 µM in the assay with SK-OV-3 ovarian; 56.4 µM in the assay on ACHN renal; 42.5 µM in the assay with SNB-19 CNS; 37.3 µM with OVCAR-8 ovarian; 35.4 µM with A498 renal; 49.6 µM with OVCAR-3 ovarian. In the assay with OVCAR-5 ovarian, the TGI came out at 43.1 µM.

A word on the GI50: it is the concentration at which growth is held to half of that of the control. With `N#Cc1c(-c2ccccc2)cc(-c2ccccc2)n(C2OC(CO)C(O)C(O)C2O)c1=S` (stereo not drawn), the GI50 is 11.3 µM and 23.5 µM in the assay with MOLT-4 leukemia; 12.5 µM and 29.2 µM with CCRF-CEM leukemia; 40.3 µM and 85 µM in the assay on SK-OV-3 ovarian; 30.7 µM and 66.6 µM with ACHN renal; 18 µM and 73 µM in the assay with OVCAR-3 ovarian; 35.8 µM and > 100 µM with OVCAR-5 ovarian. For the same compound, the TGI with MOLT-4 leukemia is 51.7 µM and 85.8 µM; with A549 NSCLC it was > 100 µM; in the assay with CCRF-CEM leukemia it was 57.4 µM and > 100 µM; in the assay with TK-10 renal, > 100 µM; with UO-31 renal, > 100 µM; in the assay with U251 CNS, 35.9 µM. The TGI is > 100 µM with SK-OV-3 ovarian; > 100 µM in the assay with ACHN renal; > 100 µM in the assay on SNB-19 CNS; > 100 µM with OVCAR-8 ovarian; 52.5 µM with A498 renal; 34.3 µM and > 100 µM in the assay on OVCAR-3 ovarian. Further, the concentration for total growth inhibition (TGI) in the assay with OVCAR-5 ovarian is > 100 µM.

As to `CNc1ncnc2c1ncn2C1C=CC(COS(N)(=O)=O)C1` (stereo not drawn), the TGI in the assay with SF-539 CNS, in the assay on MOLT-4 leukemia, with A549 NSCLC, in the assay on CCRF-CEM leukemia, in the assay on UO-31 renal and with U251 CNS was > 100 µM each time. Moreover, the TGI with SK-OV-3 ovarian, with ACHN renal, with SNB-19 CNS, in the assay with OVCAR-8 ovarian, in the assay with A498 renal and with OVCAR-3 ovarian was > 100 µM each time.

`O=C1/C(=C\c2ccc(O)cc2)CCC/C1=C/c1ccc(Cl)c(Cl)c1`: the TGI in the assay with MOLT-4 leukemia came to 5.8 µM; in the assay on A549 NSCLC it was 15 µM; in the assay on CCRF-CEM leukemia, 1.2 µM; in the assay on TK-10 renal, 10.5 µM; in the assay on UO-31 renal, 5.6 µM; in the assay on U251 CNS, 16 µM. Also, the TGI in the assay on SK-OV-3 ovarian is 17 µM; in the assay on ACHN renal, 12.1 µM; with SNB-19 CNS, 18.3 µM; in the assay on A498 renal it was 14.3 µM; in the assay with OVCAR-3 ovarian, 9.73 µM; in the assay on OVCAR-5 ovarian it was 34.3 µM.

For the compound `Cn1c2ccccc2n2c(N=O)c(-c3ccccc3)nc12`, the TGI with MOLT-4 leukemia was > 100 µM; in the assay on A549 NSCLC, 57.6 µM; in the assay on CCRF-CEM leukemia it was > 100 µM; in the assay with TK-10 renal, > 100 µM; in the assay with UO-31 renal, > 100 µM; in the assay with U251 CNS, > 100 µM. Also, the TGI with SK-OV-3 ovarian, in the assay on ACHN renal, in the assay with SNB-19 CNS, with OVCAR-8 ovarian, with A498 renal and with OVCAR-3 ovarian was > 100 µM throughout. For the same compound, the TGI in the assay with OVCAR-5 ovarian is > 100 µM.

On to `Clc1ccc(NCc2nnc(CCCCCCCCc3nnc(CNc4ccc(Cl)cc4)o3)o2)cc1`, for which the TGI in the assay on MOLT-4 leukemia, in the assay with A549 NSCLC, with CCRF-CEM leukemia, in the assay with TK-10 renal, in the assay on UO-31 renal and in the assay on U251 CNS was > 100 µM in each case. The TGI with SK-OV-3 ovarian, with ACHN renal, with SNB-19 CNS, with OVCAR-8 ovarian, in the assay with A498 renal and in the assay with OVCAR-3 ovarian was > 100 µM each time. In addition, the TGI with OVCAR-5 ovarian was > 100 µM.

Consider `COc1ccc(-c2c(C#N)c(N)n(C3OCC(OC(C)=O)C(OC(C)=O)C3OC(C)=O)c(=S)c2C#N)cc1` (stereo not drawn), for which the TGI in the assay on SF-539 CNS was > 100 µM; with MOLT-4 leukemia, 51.1 µM and 48 µM; in the assay on A549 NSCLC, > 100 µM; in the assay on CCRF-CEM leukemia it was 77.8 µM and 98.3 µM; with UO-31 renal, 82.6 µM and > 100 µM; with U251 CNS, > 100 µM. The TGI is 85.2 µM and > 100 µM in the assay on SK-OV-3 ovarian; > 100 µM in the assay on ACHN renal; > 100 µM with SNB-19 CNS; > 100 µM in the assay on OVCAR-8 ovarian; 70.1 µM and 84.2 µM in the assay on A498 renal; > 100 µM in the assay with OVCAR-3 ovarian. Further, the TGI in the assay with OVCAR-5 ovarian is > 100 µM.

As to `O=C1c2cc(Cl)ccc2-n2cnnc2C2CSCN12` (stereo not drawn), the TGI in the assay on MOLT-4 leukemia, in the assay on A549 NSCLC, with CCRF-CEM leukemia, with TK-10 renal, in the assay on UO-31 renal and with U251 CNS was > 100 µM each time. The TGI in the assay with SK-OV-3 ovarian, in the assay on ACHN renal, in the assay with SNB-19 CNS, in the assay with OVCAR-8 ovarian, in the assay on A498 renal and in the assay on OVCAR-3 ovarian was > 100 µM throughout. Moreover, in the assay with OVCAR-5 ovarian, the TGI was > 100 µM.

Turning to `CCOP(=O)(OCC)/C(C#N)=C/c1ncc[nH]1`, the TGI with SF-539 CNS is 72.9 µM; in the assay on MOLT-4 leukemia, > 100 µM; in the assay on A549 NSCLC it was > 100 µM; in the assay with CCRF-CEM leukemia, > 100 µM; in the assay with UO-31 renal, > 100 µM; in the assay on U251 CNS it was > 100 µM. Also, the TGI in the assay on SK-OV-3 ovarian, in the assay with ACHN renal, in the assay on SNB-19 CNS, with OVCAR-8 ovarian, in the assay on A498 renal and with OVCAR-3 ovarian was > 100 µM throughout. The TGI with OVCAR-5 ovarian was > 100 µM.

In the case of `CCc1c2c([nH]c(=S)c1C#N)CCC2`, the TGI in the assay with MOLT-4 leukemia, in the assay on A549 NSCLC, in the assay on CCRF-CEM leukemia, in the assay on TK-10 renal, in the assay with UO-31 renal and in the assay on U251 CNS was > 100 µM each time. Moreover, the TGI in the assay with SK-OV-3 ovarian, with ACHN renal, with SNB-19 CNS, in the assay on OVCAR-8 ovarian, in the assay on A498 renal and in the assay with OVCAR-3 ovarian was > 100 µM throughout. For the same compound, the TGI in the assay on OVCAR-5 ovarian was > 100 µM.

Regarding `Cc1cc2c(cc1-c1cc3c(cc1C)C(C(C)C)=C(O)C(=O)/C3=C\Nc1c3ccccc3nc3ccccc13)/C(=C/Nc1c3ccccc3nc3ccccc13)C(=O)C(O)=C2C(C)C`, the TGI was 16.1 µM in the assay with SF-539 CNS; 16 µM in the assay with MOLT-4 leukemia; 13.1 µM in the assay with A549 NSCLC; 25.5 µM with CCRF-CEM leukemia; 15.4 µM with UO-31 renal; 13.7 µM with U251 CNS. The TGI came out at 15.9 µM with SK-OV-3 ovarian; 5.91 µM in the assay with ACHN renal; 13.6 µM in the assay on SNB-19 CNS; 12.8 µM with OVCAR-8 ovarian; 21.9 µM in the assay on A498 renal; 14.5 µM in the assay on OVCAR-3 ovarian. The compound further showed a TGI in the assay with OVCAR-5 ovarian of 16.7 µM.

Turning to `O=C(NC1=NCC(CN2CCN(c3ccccc3)CC2)O1)Nc1ccccc1` (stereo not drawn), the TGI with MOLT-4 leukemia, in the assay with A549 NSCLC, with CCRF-CEM leukemia, in the assay on TK-10 renal, in the assay on UO-31 renal and in the assay on U251 CNS was > 100 µM throughout. Also, the TGI in the assay on SK-OV-3 ovarian, in the assay on ACHN renal, with SNB-19 CNS, in the assay on A498 renal and with OVCAR-5 ovarian was > 100 µM throughout.

Take `CNC1=C(C)C(=O)C(=O)C([C@H](C)CCC=C(C)C)=C1O`: the TGI was > 48.5 µM in the assay with MOLT-4 leukemia; > 100 µM in the assay with A549 NSCLC; > 29.4 µM with CCRF-CEM leukemia; > 100 µM with TK-10 renal; 49.7 µM in the assay with UO-31 renal; > 100 µM in the assay with U251 CNS. For the same compound, the TGI in the assay with SK-OV-3 ovarian is 83.3 µM; with ACHN renal, 39.4 µM; with SNB-19 CNS it was > 100 µM; in the assay with OVCAR-8 ovarian, > 60.9 µM; in the assay on A498 renal, 62.3 µM; in the assay with OVCAR-3 ovarian, > 100 µM. In addition, the TGI in the assay with OVCAR-5 ovarian is > 100 µM.

Regarding `CC(C)OC(=O)c1ccc(NCc2cc(O)ccc2O)cc1Cl`, the TGI with SF-539 CNS is 6.07 µM; in the assay with MOLT-4 leukemia, 8.97 µM; with A549 NSCLC, > 76.7 µM; in the assay on TK-10 renal, 20.2 µM; in the assay with UO-31 renal it was 2.38 µM; with U251 CNS it was 24.6 µM. In addition, the TGI was 49.2 µM in the assay on SK-OV-3 ovarian; 7.83 µM in the assay on ACHN renal; > 22.2 µM in the assay with SNB-19 CNS; > 70.1 µM in the assay with OVCAR-8 ovarian; > 75.9 µM with A498 renal; > 42.2 µM in the assay on OVCAR-3 ovarian. In the assay with OVCAR-5 ovarian, this compound showed a TGI of 26.6 µM.

On to `COC(=O)/C=C(/C)n1nc2ccccc2n1`, for which the TGI in the assay with MOLT-4 leukemia, in the assay on A549 NSCLC, in the assay on CCRF-CEM leukemia, in the assay with TK-10 renal, with UO-31 renal and in the assay with U251 CNS was > 100 µM each time. The total growth inhibition concentration (TGI) in the assay with SK-OV-3 ovarian, in the assay with ACHN renal, in the assay with SNB-19 CNS, with OVCAR-8 ovarian, in the assay on A498 renal and in the assay with OVCAR-3 ovarian was > 100 µM in each case. Further, in the assay with OVCAR-5 ovarian, the TGI is > 100 µM.

Take `O=C1CCCCC/C1=C\c1cccc(Cl)c1`: the TGI was > 100 µM in the assay with MOLT-4 leukemia; > 100 µM in the assay with A549 NSCLC; 30.4 µM in the assay on CCRF-CEM leukemia; > 100 µM in the assay on UO-31 renal; > 100 µM in the assay on U251 CNS; > 100 µM in the assay on SK-OV-3 ovarian. Also, the TGI with ACHN renal, with SNB-19 CNS, in the assay on A498 renal, with OVCAR-3 ovarian and in the assay on OVCAR-5 ovarian was > 100 µM each time.
